Data as given in patent US20210222225A1, “Medium for Disk Diffusion Method to Evaluate Antibiotic Sensitivity” (priority 2018, published 2021).

Assays:
PAE P1624_R = experiment: Colistin disk diffusion, guanidine hydrochloride medium, P1624_R; type: cell-based, Pseudomonas aeruginosa; conditions: 30% agar
Procedure: (§1) A concentration of agar particles (BD Diagnostic, Sparks, Md., USA) in Mueller-Hinton broth medium (BD Diagnostic) was adjusted to 5.1 g/L, which is 30% of 17 g/L, and guanidine hydrochloride was added to a concentration of 500 μg/ml, 50 μg/ml, or 5 μg/ml. Then, solidification was performed. On a surface of each medium thus prepared was evenly inoculated each of colistin-susceptible (S) or -resistant (R) Acinetobacter baumannii (ABA) strain, colistin-susceptible (S) or -resistant (R) Klebsiella pnemoniae (KPN) strain, and colistin-susceptible (S) or -resistant (R) Pseudomonas aeruginosa (PAE) strain, and a colistin disk was placed thereon. Then, pictures of a growth inhibition zone, which had been formed clear, around the disk were taken for each strain, and the results are illustrated in FIGS. 8 to 10.

PAE P1401_S = experiment: Colistin disk diffusion, guanidine hydrochloride medium, P1401_S; type: cell-based, Pseudomonas aeruginosa; conditions: 30% agar
Procedure: as §1

KPN K3070_S = experiment: Colistin disk diffusion, guanidine hydrochloride medium, K3070_S; type: cell-based, Klebsiella pnemoniae; conditions: 30% agar
Procedure: as §1

KPN K4056_R = experiment: Colistin disk diffusion, guanidine hydrochloride medium, K4056_R; type: cell-based, Klebsiella pnemoniae; conditions: 30% agar
Procedure: as §1

[1] = system: Escherichia coli ATCC25922 strain; experiment: Colistin disk diffusion on modified Mueller-Hinton agar, ECO; type: cell-based; conditions: protamine 100 μg/ml
Procedure: To each MHA thus modified was added protamine (Sigma-Aldrich, St Louis, Mo., USA) at a concentration of 100 μg/ml, and solidification was performed. Then, on a surface of the medium was evenly inoculated each of colistin-susceptible (S) or -resistant (R) Acinetobacter calcoaceticus-baumannii complex (ACB) strain, Pseudomonas aeruginosa ATCC27853 strain, Escherichia coli ATCC25922 strain, and mcr-1-harboring Enterobacter aerogenes strain, and a colistin disk was placed thereon. Subsequently, a diameter of a growth inhibition zone (colistin inhibition zone), which had been formed clear by diffusion of colistin to the agar around the colistin disk, was measured.

PAE P1618_R = experiment: Colistin disk diffusion, guanidine hydrochloride medium, P1618_R; type: cell-based, Pseudomonas aeruginosa; conditions: 30% agar
Procedure: as §1

ABA A532_R = experiment: Colistin disk diffusion, guanidine hydrochloride medium, A532_R; type: cell-based, Acinetobacter baumannii; conditions: 30% agar
Procedure: as §1

KPN K3007_S = experiment: Colistin disk diffusion, guanidine hydrochloride medium, K3007_S; type: cell-based, Klebsiella pnemoniae; conditions: 30% agar
Procedure: as §1

[2] = guanidine hydrochloride 5 μg/ml
[3] = guanidine hydrochloride 50 μg/ml
[4] = guanidine hydrochloride 500 μg/ml

colistin
13 mm: Diameter (mm) of colistin inhibition zone ([1]; 90% agar) | Diameter (mm) of colistin inhibition zone ([1]; 100% agar) | Disk diffusion (mm) (PAE P1618_R; [3]) | Disk diffusion (mm) (PAE P1618_R; [4])
12 mm: Disk diffusion (mm) (PAE P1624_R; [2]) | Disk diffusion (mm) (PAE P1624_R; [3]) | Disk diffusion (mm) (PAE P1624_R; [4]) | Disk diffusion (mm) (KPN K4056_R; [2]) | Disk diffusion (mm) (KPN K4056_R; [3]) | Disk diffusion (mm) (PAE P1618_R; [2])
17 mm: Disk diffusion (mm) (KPN K3070_S; [2]) | Disk diffusion (mm) (KPN K3070_S; [4]) | Disk diffusion (mm) (KPN K3007_S; [2])
16 mm: Disk diffusion (mm) (PAE P1401_S; [2]) | Disk diffusion (mm) (PAE P1401_S; [4]) | Disk diffusion (mm) (KPN K3070_S; [3]) | Diameter (mm) of colistin inhibition zone ([1]; 30% agar) | Disk diffusion (mm) (KPN K3007_S; [3]) | Disk diffusion (mm) (KPN K3007_S; [4])
10 mm: Disk diffusion (mm) (KPN K4056_R; [4])
15 mm: Disk diffusion (mm) (PAE P1401_S; [3])
14 mm: Diameter (mm) of colistin inhibition zone ([1]; 40% agar) | Diameter (mm) of colistin inhibition zone ([1]; 50% agar) | Diameter (mm) of colistin inhibition zone ([1]; 60% agar) | Diameter (mm) of colistin inhibition zone ([1]; 70% agar) | Diameter (mm) of colistin inhibition zone ([1]; 80% agar)
9 mm: Disk diffusion (mm) (ABA A532_R; [2]) | Disk diffusion (mm) (ABA A532_R; [3]) | Disk diffusion (mm) (ABA A532_R; [4])
